According to patent publication US8691865B2 (AbbVie Inc., priority 2008, dated 2014):
Read-outs that look alike come from different tables or passages of the source.

Molecular target: human Cav2.2 (Homo sapiens, UniProt Q00975)
Test: Assessment of calcium channel activity using FLIPR (Ca2+ influx in IMR32 cells)
Type: cell-based
Procedure, shortened: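 IC50 values derive from nonlinear sigmoidal fitting of percent inhibition, relative to inhibitor-free activity, of Ca2+ influx read by FLIPR. Cells were IMR32 human neuroblastoma, plated at 1−1.2×10^5 per well and grown 48 h at 37 °C.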

[1] = read-out: IC50 (μM) or percent inhibition (* indicates 3 minute incubation, otherwise 60 minute), IC50, 60 minute pre-incubation with compound, IMR32 cells, 80 mM KCl depolarization

Chain of human Cav2.2 (Q00975 whole entry): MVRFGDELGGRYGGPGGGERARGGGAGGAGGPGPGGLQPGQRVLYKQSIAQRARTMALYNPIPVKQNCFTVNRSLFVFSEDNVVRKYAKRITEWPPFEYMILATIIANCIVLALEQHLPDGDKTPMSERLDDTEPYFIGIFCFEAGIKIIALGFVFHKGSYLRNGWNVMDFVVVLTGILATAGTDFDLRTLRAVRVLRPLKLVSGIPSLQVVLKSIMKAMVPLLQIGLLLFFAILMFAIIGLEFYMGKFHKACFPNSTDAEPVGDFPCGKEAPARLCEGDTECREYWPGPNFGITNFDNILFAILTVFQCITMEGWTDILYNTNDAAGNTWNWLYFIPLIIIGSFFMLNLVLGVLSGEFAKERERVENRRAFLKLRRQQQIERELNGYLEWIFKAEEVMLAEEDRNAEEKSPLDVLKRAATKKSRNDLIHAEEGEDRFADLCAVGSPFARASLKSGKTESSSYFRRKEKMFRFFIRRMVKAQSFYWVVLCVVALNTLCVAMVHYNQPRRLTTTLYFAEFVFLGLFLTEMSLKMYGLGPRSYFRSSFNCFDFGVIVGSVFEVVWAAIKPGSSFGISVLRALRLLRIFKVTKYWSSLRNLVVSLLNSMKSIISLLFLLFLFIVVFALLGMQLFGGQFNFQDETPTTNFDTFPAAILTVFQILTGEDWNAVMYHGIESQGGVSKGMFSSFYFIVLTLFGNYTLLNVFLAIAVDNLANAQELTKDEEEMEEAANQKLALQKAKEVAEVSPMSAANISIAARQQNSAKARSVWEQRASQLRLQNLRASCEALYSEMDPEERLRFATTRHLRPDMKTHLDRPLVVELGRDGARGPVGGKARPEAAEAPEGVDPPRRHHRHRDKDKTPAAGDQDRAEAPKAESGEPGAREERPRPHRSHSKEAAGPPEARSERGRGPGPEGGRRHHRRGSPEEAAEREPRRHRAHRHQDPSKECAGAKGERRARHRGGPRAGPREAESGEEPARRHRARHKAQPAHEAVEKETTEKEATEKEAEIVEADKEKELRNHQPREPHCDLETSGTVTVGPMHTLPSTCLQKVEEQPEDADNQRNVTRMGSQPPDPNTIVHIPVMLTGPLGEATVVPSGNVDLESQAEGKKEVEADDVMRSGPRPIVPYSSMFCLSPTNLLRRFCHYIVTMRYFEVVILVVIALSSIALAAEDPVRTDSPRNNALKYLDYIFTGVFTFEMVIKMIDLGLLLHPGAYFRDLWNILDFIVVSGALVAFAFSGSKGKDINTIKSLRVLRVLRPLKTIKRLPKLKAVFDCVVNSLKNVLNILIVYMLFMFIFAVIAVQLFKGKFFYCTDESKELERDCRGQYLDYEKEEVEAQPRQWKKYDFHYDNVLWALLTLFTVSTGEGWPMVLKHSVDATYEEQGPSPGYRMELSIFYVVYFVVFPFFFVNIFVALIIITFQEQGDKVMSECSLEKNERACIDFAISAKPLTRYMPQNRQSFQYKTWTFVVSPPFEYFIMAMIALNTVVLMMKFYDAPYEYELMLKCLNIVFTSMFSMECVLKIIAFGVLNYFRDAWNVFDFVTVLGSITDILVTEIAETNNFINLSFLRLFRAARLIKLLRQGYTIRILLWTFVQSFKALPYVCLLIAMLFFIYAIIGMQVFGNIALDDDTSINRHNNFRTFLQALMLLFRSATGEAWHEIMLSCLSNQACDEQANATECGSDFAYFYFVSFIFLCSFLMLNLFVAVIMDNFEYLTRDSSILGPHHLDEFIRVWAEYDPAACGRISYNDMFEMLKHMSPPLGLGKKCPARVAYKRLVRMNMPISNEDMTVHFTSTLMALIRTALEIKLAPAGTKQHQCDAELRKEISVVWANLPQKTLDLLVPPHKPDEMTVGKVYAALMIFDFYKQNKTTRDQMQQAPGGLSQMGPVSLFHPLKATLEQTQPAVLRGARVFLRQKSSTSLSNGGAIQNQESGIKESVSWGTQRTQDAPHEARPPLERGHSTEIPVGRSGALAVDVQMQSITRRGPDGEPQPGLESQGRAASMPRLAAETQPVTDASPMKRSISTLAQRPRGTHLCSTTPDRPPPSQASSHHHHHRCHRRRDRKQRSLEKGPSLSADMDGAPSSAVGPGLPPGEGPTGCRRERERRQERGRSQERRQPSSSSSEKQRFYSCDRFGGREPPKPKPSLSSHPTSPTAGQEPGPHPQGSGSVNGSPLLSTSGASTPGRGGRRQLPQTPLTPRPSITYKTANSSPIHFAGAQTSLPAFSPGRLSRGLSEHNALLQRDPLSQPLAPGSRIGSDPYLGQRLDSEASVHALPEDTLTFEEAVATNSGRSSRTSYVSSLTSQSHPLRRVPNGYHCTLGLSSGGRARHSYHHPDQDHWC
Chain of human Cav2.2 (P54289 25-956 partner limits assumed): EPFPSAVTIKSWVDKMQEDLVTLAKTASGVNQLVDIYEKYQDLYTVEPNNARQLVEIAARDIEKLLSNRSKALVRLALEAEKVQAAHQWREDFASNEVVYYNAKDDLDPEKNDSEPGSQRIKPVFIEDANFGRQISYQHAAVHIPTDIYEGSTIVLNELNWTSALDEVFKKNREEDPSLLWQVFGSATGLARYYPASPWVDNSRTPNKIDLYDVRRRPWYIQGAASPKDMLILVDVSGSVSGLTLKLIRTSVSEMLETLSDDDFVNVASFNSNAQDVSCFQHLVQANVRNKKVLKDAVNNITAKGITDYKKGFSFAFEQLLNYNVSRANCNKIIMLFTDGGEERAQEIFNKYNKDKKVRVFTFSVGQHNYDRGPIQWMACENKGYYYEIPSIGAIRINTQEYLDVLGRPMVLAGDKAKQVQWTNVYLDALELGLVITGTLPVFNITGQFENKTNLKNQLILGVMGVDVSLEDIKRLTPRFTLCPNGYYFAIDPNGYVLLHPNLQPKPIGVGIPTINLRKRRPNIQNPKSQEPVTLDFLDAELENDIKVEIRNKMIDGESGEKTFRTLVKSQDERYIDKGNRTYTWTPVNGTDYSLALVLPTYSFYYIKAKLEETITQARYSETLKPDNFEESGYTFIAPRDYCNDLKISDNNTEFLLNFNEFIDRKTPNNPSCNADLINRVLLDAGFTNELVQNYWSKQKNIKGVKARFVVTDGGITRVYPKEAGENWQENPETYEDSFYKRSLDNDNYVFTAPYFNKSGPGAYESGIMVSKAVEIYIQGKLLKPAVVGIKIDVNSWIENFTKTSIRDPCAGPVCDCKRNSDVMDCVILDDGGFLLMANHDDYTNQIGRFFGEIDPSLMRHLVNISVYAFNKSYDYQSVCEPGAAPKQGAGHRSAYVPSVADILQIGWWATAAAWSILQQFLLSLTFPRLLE
Chain of human Cav2.2 (P54289 957-1103 partner limits assumed): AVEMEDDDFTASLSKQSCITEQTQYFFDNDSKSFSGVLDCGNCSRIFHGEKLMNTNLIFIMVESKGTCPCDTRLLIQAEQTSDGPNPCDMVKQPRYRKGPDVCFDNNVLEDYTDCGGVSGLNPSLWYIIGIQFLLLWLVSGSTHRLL
Chain of human Cav2.2 (P54284 whole entry partner): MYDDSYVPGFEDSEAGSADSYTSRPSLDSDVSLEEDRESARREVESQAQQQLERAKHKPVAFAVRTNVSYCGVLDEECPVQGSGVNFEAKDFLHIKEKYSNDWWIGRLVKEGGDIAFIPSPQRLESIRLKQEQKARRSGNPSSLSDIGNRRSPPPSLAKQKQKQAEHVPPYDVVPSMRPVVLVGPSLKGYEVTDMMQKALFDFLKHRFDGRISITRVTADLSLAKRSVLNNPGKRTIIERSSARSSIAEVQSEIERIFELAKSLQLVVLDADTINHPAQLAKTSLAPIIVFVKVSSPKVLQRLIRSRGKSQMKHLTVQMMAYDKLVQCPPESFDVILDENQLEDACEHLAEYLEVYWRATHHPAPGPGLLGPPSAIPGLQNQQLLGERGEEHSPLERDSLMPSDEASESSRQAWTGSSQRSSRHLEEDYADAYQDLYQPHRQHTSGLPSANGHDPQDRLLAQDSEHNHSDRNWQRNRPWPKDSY

Structure (SMILES) | IC50 [1] [µM] | IC50 [µM]
CC(C)C(C(=O)N[C@H]1CC[C@@H]2CN(CCCCC(c3ccc(F)cc3)c3ccc(F)cc3)C[C@@H]21)c1ccccc1 (stereo partly drawn) [Example 119, N-{(3aR,4S,6aS)-2-[5,5-bis(4-fluorophenyl)pentyl]octahydrocyclopenta[c]pyrrol-4-yl}-3-methyl-2-phenylbutanamide] | 1.12 | –
CC(C)C[C@@H](C(=O)N[C@H]1CC[C@H]2CN(Cc3cccc(C(F)(F)F)c3)C[C@H]21)N(C)S(C)(=O)=O [Example 167, N^2-methyl-N^2-(methylsulfonyl)-N^1-{(3aS,4S,6aR)-2-[3-(trifluoromethyl)benzyl]octahydrocyclopenta[c]pyrrol-4-yl}-L-leucinamide] | 1.21 | –
CC(C)(C)C(C(=O)N[C@@H]1CC[C@H]2CN(Cc3cccc(C(F)(F)F)c3)C[C@H]21)c1ccccc1 (relative stereo) [Example 147, 3,3-dimethyl-2-phenyl-N-{(3aS*,4R*,6aR*)-2-[3-(trifluoromethyl)benzyl]octahydrocyclopenta[c]pyrrol-4-yl}butanamide] | 0.51 | –
CC(C)C(C(=O)N[C@H]1CC[C@@H]2CN(Cc3ccccc3)C[C@@H]21)C(C)C [Example 229, N-[(3aR,4S,6aS)-2-benzyloctahydrocyclopenta[c]pyrrol-4-yl]-2-isopropyl-3-methylbutanamide] | 13.4 | –
O=C(N[C@@H]1CC[C@H]2CN(Cc3ccc(F)cc3)C[C@H]21)[C@@H]1CCCCN1 [Example 368, (2S)-N-[(3aS,4R,6aR)-2-(4-fluorobenzyl)octahydrocyclopenta[c]pyrrol-4-yl]piperidine-2-carboxamide] | 12.4 | –
CC(C)(C)C(C(=O)N[C@H]1CC[C@H]2CN(Cc3cccc(C(F)(F)F)c3)C[C@H]21)c1ccccc1 (relative stereo) [Example 123, 3,3-dimethyl-2-phenyl-N-{(3aS*,4S*,6aR*)-2-[3-(trifluoromethyl)benzyl]octahydrocyclopenta[c]pyrrol-4-yl}butanamide] | – | 0.57
O=C(N[C@H]1CC[C@H]2CN(Cc3cccc(C(F)(F)F)c3)C[C@H]21)C(O)C1CCCCC1 (stereo partly drawn) [Example 237, 2-cyclohexyl-2-hydroxy-N-{(3aS,4S,6aR)-2-[3-(trifluoromethyl)benzyl]octahydrocyclopenta[c]pyrrol-4-yl}acetamide] | – | 1.46
CC(C)C(C(=O)N[C@H]1CC[C@@H]2CN(Cc3ccccc3)C[C@@H]21)c1ccc(Cl)cc1 (stereo partly drawn) [Example 43, N-[(3aR,4S,6aS)-2-benzyloctahydrocyclopenta[c]pyrrol-4-yl]-2-(4-chlorophenyl)-3-methylbutanamide] | 1.49 | –
O=C(CCCCC(c1ccc(F)cc1)c1ccc(F)cc1)N[C@H]1CC[C@H]2CN(Cc3cccc(C(F)(F)F)c3)C[C@H]21 (relative stereo) [Example 130, 6,6-bis(4-fluorophenyl)-N-{(3aS*,4S*,6aR*)-2-[3-(trifluoromethyl)benzyl]octahydrocyclopenta[c]pyrrol-4-yl}hexanamide] | 0.79 | –
O=C(N[C@H]1CC[C@H]2CN(Cc3cccc(C(F)(F)F)c3)C[C@H]21)C(C1CCCCC1)C1CCCCC1 [Example 54, 2,2-dicyclohexyl-N-{(3aS,4S,6aR)-2-[3-(trifluoromethyl)benzyl]octahydrocyclopenta[c]pyrrol-4-yl}acetamide] | – | 0.46
CC(C)[C@H](N)CC(=O)N[C@@H]1CC[C@H]2CN(S(=O)(=O)c3cccc(C(F)(F)F)c3)C[C@H]21 [Example 397, (3R)-3-amino-4-methyl-N-((3aS,4R,6aR)-2-{[3-(trifluoromethyl)phenyl]sulfonyl}octahydrocyclopenta[c]pyrrol-4-yl)pentanamide] | 1.46 | –
O=C(N[C@H]1CC[C@H]2CN(Cc3cccc(C(F)(F)F)c3)C[C@H]21)C1CCCCCC1 (relative stereo) [Example 128, N-{(3aS*,4S*,6aR*)-2-[3-(trifluoromethyl)benzyl]octahydrocyclopenta[c]pyrrol-4-yl}cycloheptanecarboxamide] | – | 0.56
Cc1ccccc1CN1C[C@H]2CC[C@H](NC(=O)C(c3ccccc3)C(C)C)[C@H]2C1 (stereo partly drawn) [Example 92, 3-methyl-N-[(3aR,4S,6aS)-2-(2-methylbenzyl)octahydrocyclopenta[c]pyrrol-4-yl]-2-phenylbutanamide] | 2.04 | –
CN[C@@H](CC(C)C)C(=O)N[C@@H]1CC[C@H]2CN(S(=O)(=O)c3ccc(C(F)(F)F)cc3)C[C@H]21 [Example 183, N^2-methyl-N^1-((3aS,4R,6aR)-2-{[4-(trifluoromethyl)phenyl]sulfonyl}octahydrocyclopenta[c]pyrrol-4-yl)-L-leucinamide] | 1.41 | –
CC(C)(C)[C@H](C(=O)N[C@@H]1CC[C@H]2CN(Cc3ccccc3)C[C@H]21)c1ccccc1 [Example 31, (2S)-N-[(3aS,4R,6aR)-2-benzyloctahydrocyclopenta[c]pyrrol-4-yl]-3,3-dimethyl-2-phenylbutanamide] | 1.65 | –
CCC[C@H](N)C(=O)N[C@H]1CC[C@@H]2CN(S(=O)(=O)c3ccc(C(F)(F)F)cc3)C[C@@H]21 [Example 422, N^1-((3aR,4S,6aS)-2-{[4-(trifluoromethyl)phenyl]sulfonyl}octahydrocyclopenta[c]pyrrol-4-yl)-L-norvalinamide] | – | 7.83

Other lines, results leading:

IC50 [1] [µM] | IC50 [µM] | Structure (SMILES)
– | 7.03 | O=C(N[C@H]1CC[C@@H]2CN(c3ncccc3C(F)(F)F)C[C@@H]21)[C@@H]1C[C@@H](F)CN1 [Example 660, (4R)-4-fluoro-N-{(3aR,4S,6aS)-2-[3-(trifluoromethyl)pyridin-2-yl]octahydrocyclopenta[c]pyrrol-4-yl}-L-prolinamide]
– | 1.38 | O=C(N[C@H]1CC[C@@H]2CN(c3cccc(C(F)(F)F)n3)C[C@@H]21)c1cc2occc2[nH]1 [Example 574, N-{(3aR,4S,6aS)-2-[6-(trifluoromethyl)pyridin-2-yl]octahydrocyclopenta[c]pyrrol-4-yl}-4H-furo[3,2-b]pyrrole-5-carboxamide]
– | > 30 | O=C(N[C@H]1CC[C@@H]2CN(c3ccnc(C(F)(F)F)c3)C[C@@H]21)[C@@H]1C[C@@H](F)CN1 [Example 638, (4R)-4-fluoro-N-{(3aR,4S,6aS)-2-[2-(trifluoromethyl)pyridin-4-yl]octahydrocyclopenta[c]pyrrol-4-yl}-L-prolinamide]
9.26 | – | CN[C@@H](CC(C)C)C(=O)N[C@@H]1CC[C@H]2CN(Cc3ccc(F)cc3)C[C@H]21 [Example 450, N^1-[(3aS,4R,6aR)-2-(4-fluorobenzyl)octahydrocyclopenta[c]pyrrol-4-yl]-N^2-methyl-L-leucinamide]
– | 0.8 | FC(F)(F)c1cccc(N2C[C@H]3CC[C@H](NCc4c[nH]nc4-c4cccs4)[C@H]3C2)n1 [Example 669, (3aR,4S,6aS)-N-{[3-(2-thienyl)-1H-pyrazol-4-yl]methyl}-2-[6-(trifluoromethyl)pyridin-2-yl]octahydrocyclopenta[c]pyrrol-4-amine]
– | 14 | O=C(N[C@H]1CC[C@@H]2CN(c3ccc(C(F)(F)F)cn3)C[C@@H]21)[C@@H]1C[C@@H](F)CN1 [Example 780, (4R)-4-fluoro-N-{(3aR,4S,6aS)-2-[5-(trifluoromethyl)pyridin-2-yl]octahydrocyclopenta[c]pyrrol-4-yl}-L-prolinamide]
– | 1.19 | CN[C@@H](CC(C)C)C(=O)N[C@H]1CC[C@@H]2CN(c3cccc(C(F)(F)F)c3)C[C@@H]21 [Example 606, N^2-methyl-N-{(3aR,4S,6aS)-2-[3-(trifluoromethyl)phenyl]octahydrocyclopenta[c]pyrrol-4-yl}-L-leucinamide]
– | 1.01 | CN[C@@H](CC(C)C)C(=O)N[C@H]1CC[C@@H]2CN(c3cccc(SC(F)(F)F)c3)C[C@@H]21 [Example 712, N^2-methyl-N-[(3aR,4S,6aS)-2-{3-[(trifluoromethyl)thio]phenyl]octahydrocyclopenta[c]pyrrol-4-yl}-L-leucinamide]
– | 4.22 | Fc1ccc2[nH]c(CN[C@H]3CC[C@@H]4CN(c5cccc(C(F)(F)F)c5)C[C@@H]43)cc2c1 [Example 616, (3aR,4S,6aS)-N-[(5-fluoro-1H-indol-2-yl)methyl]-2-[3-(trifluoromethyl)phenyl]octahydrocyclopenta[c]pyrrol-4-amine]
– | > 9.5 | CN[C@H](C(=O)N[C@H]1CC[C@@H]2CN(c3ccc(OC(F)(F)F)cc3)C[C@@H]21)C(C)C [Example 756, N^2-methyl-N-{(3aR,4S,6aS)-2-[4-(trifluoromethoxy)phenyl]octahydrocyclopenta[c]pyrrol-4-yl}-L-valinamide]
– | 1.27 | Fc1cc(F)cc(-c2n[nH]cc2CN[C@H]2CC[C@@H]3CN(c4cccc(C(F)(F)F)n4)C[C@@H]32)c1 [Example 687, (3aR,4S,6aS)-N-{[3-(3,5-difluorophenyl)-1H-pyrazol-4-yl]methyl}-2-[6-(trifluoromethyl)pyridin-2-yl]octahydrocyclopenta[c]pyrrol-4-amine]
– | > 30 | CCC[C@H](NC)C(=O)N[C@H]1CC[C@@H]2CN(S(=O)(=O)c3ccco3)C[C@@H]21 [Example 547, N^1-[(3aR,4S,6aS)-2-(2-furylsulfonyl)octahydrocyclopenta[c]pyrrol-4-yl]-N^2-methyl-L-norvalinamide]
4.44 | – | CC(C)C[C@H](NS(=O)(=O)c1ccccc1)C(=O)N[C@@H]1CC[C@H]2CN(Cc3cccc(C(F)(F)F)c3)C[C@H]21 [Example 523, N^2-(phenylsulfonyl)-N^1-{(3aS,4R,6aR)-2-[3-(trifluoromethyl)benzyl]octahydrocyclopenta[c]pyrrol-4-yl}-L-leucinamide]
– | 0.53 | CCCCc1nc(CN[C@H]2CC[C@@H]3CN(c4cccc(C(F)(F)F)n4)C[C@@H]32)c[nH]1 [Example 674, (3aR,4S,6aS)-N-[(2-butyl-1H-imidazol-4-yl)methyl]-2-[6-(trifluoromethyl)pyridin-2-yl]octahydrocyclopenta[c]pyrrol-4-amine]
– | 2.55 | O=S(=O)(N[C@H]1CC[C@@H]2CN(c3cccc(C(F)(F)F)n3)C[C@@H]21)c1cccc(F)c1 [Example 702, 3-fluoro-N-{(3aR,4S,6aS)-2-[6-(trifluoromethyl)pyridin-2-yl]octahydrocyclopenta[c]pyrrol-4-yl}benzenesulfonamide]
